The values below come from patent US9241486B2, “Combination and methods for controlling turfgrass pests” (Bayer CropScience LP, priority 2012, dated 2016).

Molecules are shown by their SMILES.

Holding throughout (format): in vivo
Assay [1] has as its system Southern Chinch Bug (Blissus insularis). Briefly: Field plot trial on St. Augustine grass infested with Southern Chinch Bug, number of live bugs (Example 1). To be noted: for Number of Chinch bugs 0 Days After Application / Number of Chinch bugs 4 Days After Application / Number of chinch bugs 7 Days After Application / Number of chinch bugs 18 Days After Application: spray, 40 gallons water per acre, spirotetramat 111 g/ha, azadirachtin 222 g/ha, imidacloprid + azadirachtin 111 + 222 g/ha; for Control of Southern chinch bugs (in words): Example 1, summary of Table 1. The method, then:
Plots approximately 6 feet by 10 feet with three replicates and planted with St. Augustine grass are infested with the Southern Chinch Bug (Blissus insularis). Using a sprayer (research back pack sprayers), Spirotetramat (MOVENTO 240 SC) on its own, azadirachtin (AZATIN XL) on its own, and a mixture of imidacloprid (MERIT 240 SC) and azadirachtin, are applied at the application rates specified. The water application rate is 40 gallons per acre. The evaluation is performed 0 days, 4 days, 7 days, and 18 days after the treatment by determining the number of live Southern Chinch Bugs.

Assay [2] has the same test system. Briefly: Field plot trial on St. Augustine grass infected with Southern chinch bug, number of chinch bugs (Example 2). To be noted: for Number of chinch bugs at 0 Days / Number of chinch bugs at 5 days / Number of chinch bugs at 13 days / Number of chinch bugs at 29 days / Number of chinch bugs at 41 days / Number of chinch bugs at 58 days: Allectus 1083 g ai/ha total, imidacloprid 448.8 g ai/ha, spirotetramat 175.8 g ai/ha, mixture 175.8 + 448.8 g ai/ha; for Number of chinch bugs at 5 days: 5 days after treatment; for Number of chinch bugs at 13 days: 13 days after treatment; for Number of chinch bugs at 29 days: 29 days after treatment; for Number of chinch bugs at 41 days: 41 days after treatment; for Number of chinch bugs at 58 days: 58 days after treatment; for Control of Southern chinch bugs (in words): Example 2, summary of Table 2, up to 58 days after treatment. An excerpt:
(§1) Plots approximately 30 ft by 10 ft with 3 replicates and planted with St. Augustine grass are infected with Southern chinch bug (Blissus insularis). Using a pneumatic sprayer, a mixture of the spirotetramat (MOVENTO 240 SC) and imidacloprid (MERIT 240 SC) is applied in comparision to the spirotetramat (MOVENTO 240 SC) on its own, the imidacloprid (MERIT 240 SC) on its own, and the gold standard Pyrethrin treatment ALLECTUS™ (imidacloprid+bifenthrin), at the application rates specified. The water application rate is 40 gallons per acre. The evaluation is performed 0 days, 5 days, 13 days, 29 days, 41 days, and 58 days after the treatment by determining the number of chinch bugs and the chlorophyll content of the grass. The higher the chlorophyll content of the grass, the greener and lusher the grass is.

The subject of assay [3] is St. Augustine grass. Kind of assay: Chlorophyll content of St. Augustine grass infected with Southern chinch bug (Example 2). Particulars: Allectus 1083 g ai/ha total, imidacloprid 448.8 g ai/ha, spirotetramat 175.8 g ai/ha, mixture 175.8 + 448.8 g ai/ha; for Chlorophyll Content 5 days: 5 days after treatment; for Chlorophyll Content 13 days: 13 days after treatment; for Chlorophyll Content 41 days: 41 days after treatment; for Chlorophyll Content 58 days: 58 days after treatment.
Description: as §1

`C/C=C(\C)C(=O)O[C@H]1C[C@@H](OC(C)=O)[C@@]2(C(=O)OC)CO[C@H]3[C@@H](O)[C@@](C)([C@]45O[C@@]4(C)[C@H]4C[C@@H]5O[C@@H]5OC=C[C@@]54O)[C@H]4[C@]1(CO[C@]4(O)C(=O)OC)[C@@H]32` [Azadirachtin, azadirachtin]: in assay [1], the “Number of Chinch bugs 0 Days After Application” value stood at 12, the “Number of Chinch bugs 4 Days After Application” value is reported as 15, the “Number of chinch bugs 7 Days After Application” value was found to be 5 and the “Number of chinch bugs 18 Days After Application” value was 11.
Consider `O=[N+]([O-])/N=C1\NCCN1Cc1ccc(Cl)nc1` [Imidacloprid, imidacloprid], for which, in assay [2], the “Number of chinch bugs at 0 Days” value is listed as 50, the “Number of chinch bugs at 5 days” value is 19, the “Number of chinch bugs at 13 days” value amounted to 41 and the “Number of chinch bugs at 29 days” value is 30. Further, in assay [2], the “Number of chinch bugs at 41 days” value stood at 65, the “Number of chinch bugs at 58 days” value came out at 9 and the “Control of Southern chinch bugs (in words)” value (shortened to “Control”) is given as “neither spirotetramat or imidacloprid alone provided good control”. In assay [3], the “Chlorophyll Content 5 days” value is recorded as 2.733, the “Chlorophyll Content 13 days” value turned out to be 3.215, the “Chlorophyll Content 41 days” value is 3.185 and the “Chlorophyll Content 58 days” value came out at 3.250. Further, in assay [1], the “Control” value is “none of the compounds provided good control”.
`CCOC(=O)OC1=C(c2cc(C)ccc2C)C(=O)N[C@]12CC[C@@H](OC)CC2` [Spirotetramat]: in assay [2], the “Number of chinch bugs at 0 Days” value stood at 50, the “Number of chinch bugs at 5 days” value came to 45, the “Number of chinch bugs at 13 days” value is on record as 73 and the “Number of chinch bugs at 29 days” value was determined as 45. Further, in assay [2], the “Number of chinch bugs at 41 days” value is listed as 83, the “Number of chinch bugs at 58 days” value is on record as 26 and the “Control” value is listed as “neither spirotetramat or imidacloprid alone provided good control”. Moreover, in assay [3], the “Chlorophyll Content 5 days” value is on record as 3.338, the “Chlorophyll Content 13 days” value is given as 3.250, the “Chlorophyll Content 41 days” value came to 2.292 and the “Chlorophyll Content 58 days” value is on record as 2.149. Besides, in assay [1], the “Number of Chinch bugs 0 Days After Application” value came to 6, the “Number of Chinch bugs 4 Days After Application” value is recorded as 12, the “Number of chinch bugs 7 Days After Application” value is 6 and the “Number of chinch bugs 18 Days After Application” value was 10. The “Control” value in assay [1] is on record as “none of the compounds provided good control”.
